# From US7863444B2, “4-aminopyrrolopyrimidines as kinase inhibitors” (Abbott Laboratories, priority 1997, dated 2011)
row,melting point,Compound
1,198 to 200 °C,"CC(C)n1cc(-c2ccc(C=O)cc2)c2c(N)ncnc21 [Example 160, 4-(4-amino-7-isopropyl-7H-pyrrolo[2,3-d]pyrimidin-5-yl)benzaldehyde]"
2,162 to 162.5 °C,"CC(C)S(=O)(=O)n1cc(-c2ccc(Oc3ccccc3)cc2)c2c(N)ncnc21 [Example 173, 7-isopropylsulphonyl-5-(4-phenoxyphenyl)-7H-pyrrolo[2,3-d]pyrimidin-4-ylamine]"
3,92 to 94 °C,"CC(C)n1cc(-c2ccc(Oc3ccccc3)c(CO)c2)c2c(N)ncnc21 [Example 163, 5-[4-amino-7-isopropyl-7H-pyrrolo[2,3-d]pyrimidin-5-yl]-2-phenoxybenzylalcohol]"
4,196.5 to 197.5 °C,"NCc1c(-c2ccc(Oc3ccccc3)cc2)c2c(N)ncnc2n1C1CCCC1 [Example 165, 6-aminomethyl-7-cyclopentyl-5-(4-phenoxyphenyl)-7H-pyrrolo[2,3-d]pyrimidin-4-ylamine]"
5,163 to 164 °C,"CC(C)(C)n1cc(-c2ccc(N(C=O)c3ccccc3)cc2)c2cncnc21 [Example 166, 7-tertbutyl-5-(N-formyl-4-phenylaminophenyl)pyrrolo[2,3-d]pyrimidine]"
6,199 to 200 °C,"Nc1ncnc2c1c(-c1ccc(Oc3ccccc3)cc1)cn2C1CCC(O)CC1 (centres unmarked) [Example 175, 4-[4-amino-5-(4-phenoxyphenyl)-7H-pyrrolo[2,3-d]pyrimidin-7-yl]cyclohexanol]"
7,193 to 194 °C,"Nc1ncnc2c1c(-c1ccc(Oc3ccccc3)cc1)cn2C1CC2CC(O)CC2C1 (centres unmarked) [Example 174, 7-[4-amino-5-(4-phenoxyphenyl)-7H-pyrrolo[2,3-d]pyrimidin-7-yl]bicyclo[3.3.0]octan-3-ol]"
8,166 to 166.5 °C,"Nc1ncnc2c1c(-c1ccc(Oc3ccc(OCCO)cc3)cc1)cn2CCO [Example 169, 7-(2-Hydroxyethyl)-5-{4-[4-(2-hydroxyethoxy)phenoxy]phenyl}pyrrolo[2,3-d]-pyrimidin-4-ylamine]"
